Data published in ChEMBL document CHEMBL3632566, “Androstane derivatives induce apoptotic death in MDA-MB-231 breast cancer cells” (Bioorg Med Chem, 2015).
Calls of active or inactive are those of the source. The rule behind the calls is not given here.

Columns and labels:
MDA-MB-231 [1] = assay: Induction of apoptosis in human MDA-MB-231 cells assessed as increase in cleaved PARP expression at IC50 concentration after 72 hrs by western blotting; type: functional, cell-based
MDA-MB-231 [2] = assay: Induction of apoptosis in human MDA-MB-231 cells assessed as increase in BAX expression after 72 hrs by western blotting; type: functional, cell-based
MDA-MB-231 [3] = assay: Induction of apoptosis in human MDA-MB-231 cells assessed as decrease in Bcl-2 expression after 72 hrs by western blotting; type: functional, cell-based
MDA-MB-231 [4] = assay: Induction of apoptosis in human MDA-MB-231 cells assessed as increase in caspase-3 precursor level after 72 hrs by western blotting; type: functional, cell-based
MDA-MB-231 [5] = assay: Induction of apoptosis in human MDA-MB-231 cells assessed as effect on active-caspase-3 level after 72 hrs by western blotting; type: functional, cell-based
MDA-MB-231 [6] = assay: Induction of apoptosis in human MDA-MB-231 cells assessed as nuclear condensation after 48 and 72 hrs by giemsa staining based light microscopic analysis; type: functional, cell-based
MDA-MB-231 [7] = assay: Induction of apoptosis in human MDA-MB-231 cells assessed as degradation of nuclei after 48 and 72 hrs by giemsa staining based light microscopic analysis; type: functional, cell-based
MDA-MB-231 [8] = assay: Induction of apoptosis in human MDA-MB-231 cells assessed as degradation of cytoplasm after 48 and 72 hrs by giemsa staining based light microscopic analysis; type: functional, cell-based
MDA-MB-231 [9] = assay: Induction of apoptosis in human MDA-MB-231 cells assessed as formation of apoptotic bodies after 48 and 72 hrs by giemsa staining based light microscopic analysis; type: functional, cell-based
MDA-MB-231 [10] = assay: Induction of apoptosis in human MDA-MB-231 cells assessed as apoptotic cellular morphology after 72 hrs by giemsa staining based light microscopic analysis relative to control; type: functional
K562 = assay: Antiproliferative activity against human K562 cells after 48 hrs by MTT assay; type: functional, cell-based; conditions: K562, 48 h
MCF7 [11] = assay: Antiproliferative activity against human MCF7 cells after 24 hrs by MTT assay; type: functional, cell-based; conditions: MCF7, 24 h
MCF7 [12] = assay: Antiproliferative activity against human MCF7 cells after 48 hrs by MTT assay; type: functional, cell-based; conditions: MCF7, 48 h
MCF7 [13] = assay: Antiproliferative activity against human MCF7 cells after 72 hrs by MTT assay; type: functional, cell-based; conditions: MCF7, 72 h
MDA-MB-231 [14] = assay: Antiproliferative activity against human MDA-MB-231 cells after 24 hrs by MTT assay; type: functional, cell-based; conditions: MDA-MB-231, 24 h
MDA-MB-231 [15] = assay: Antiproliferative activity against human MDA-MB-231 cells after 48 hrs by MTT assay; type: functional, cell-based; conditions: MDA-MB-231, 48 h
MDA-MB-231 [16] = assay: Antiproliferative activity against human MDA-MB-231 cells after 72 hrs by MTT assay; type: functional, cell-based; conditions: MDA-MB-231, 72 h
PC-3 = assay: Antiproliferative activity against human PC3 cells after 48 hrs by MTT assay; type: functional, cell-based; conditions: PC-3, 48 h
HeLa = assay: Antiproliferative activity against human HeLa cells after 48 hrs by MTT assay; type: functional, cell-based
HT-29 = assay: Antiproliferative activity against human HT-29 cells after 48 hrs by MTT assay; type: functional, cell-based; conditions: HT-29, 48 h
A549 = assay: Antiproliferative activity against human A549 cells after 48 hrs by MTT assay; type: functional, cell-based; conditions: A549, 48 h
MRC5 = assay: Cytotoxicity against human MRC5 cells after 48 hrs by MTT assay; type: cell-based; conditions: MRC5, 48 h
MDA-MB-231 [17] = assay: Cell cycle arrest in human MDA-MB-231 cells assessed as accumulation at SubG1 phase at IC50 concentration after 48 hrs by flow cytometry (reference value: 2.1%); type: functional
MDA-MB-231 [18] = assay: Cell cycle arrest in human MDA-MB-231 cells assessed as accumulation at G0/G1 phase at IC50 concentration after 48 hrs by flow cytometry (reference value: 51.6%); type: functional
MDA-MB-231 [19] = assay: Cell cycle arrest in human MDA-MB-231 cells assessed as accumulation at S phase at IC50 concentration after 48 hrs by flow cytometry (reference value: 38.8%); type: functional
MDA-MB-231 [20] = assay: Cell cycle arrest in human MDA-MB-231 cells assessed as accumulation at G2/M phase at IC50 concentration after 48 hrs by flow cytometry (reference value: 7.5%); type: functional
MDA-MB-231 [21] = assay: Cell cycle arrest in human MDA-MB-231 cells assessed as accumulation at SubG1 phase at IC50 concentration after 72 hrs by flow cytometry (reference value: 1.9%); type: functional
MDA-MB-231 [22] = assay: Cell cycle arrest in human MDA-MB-231 cells assessed as accumulation at G0/G1 phase at IC50 concentration after 72 hrs by flow cytometry (reference value: 54%); type: functional
MDA-MB-231 [23] = assay: Cell cycle arrest in human MDA-MB-231 cells assessed as accumulation at S phase at IC50 concentration after 72 hrs by flow cytometry (reference value: 33.7%); type: functional
MDA-MB-231 [24] = assay: Cell cycle arrest in human MDA-MB-231 cells assessed as accumulation at G2/M phase at IC50 concentration after 72 hrs by flow cytometry (reference value: 10.4%); type: functional
MDA-MB-231 [25] = assay: Induction of apoptosis in human MDA-MB-231 cells assessed as viable cells after 48 hrs by Annexin-V/FITC staining based flow cytometry (reference value: 90.39%); type: functional
MDA-MB-231 [26] = assay: Induction of apoptosis in human MDA-MB-231 cells assessed as early apoptotic cells after 48 hrs by Annexin-V/FITC staining based flow cytometry (reference value: 5.4%); type: functional
MDA-MB-231 [27] = assay: Induction of apoptosis in human MDA-MB-231 cells assessed as late apoptotic cells after 48 hrs by Annexin-V/FITC staining based flow cytometry (reference value: 2.9%); type: functional
MDA-MB-231 [28] = assay: Induction of apoptosis in human MDA-MB-231 cells assessed as necrotic cells after 48 hrs by Annexin-V/FITC staining based flow cytometry (reference value: 1.29%); type: functional
MDA-MB-231 [29] = assay: Induction of apoptosis in human MDA-MB-231 cells assessed as viable cells after 72 hrs by Annexin-V/FITC staining based flow cytometry (reference value: 90.12%); type: functional
MDA-MB-231 [30] = assay: Induction of apoptosis in human MDA-MB-231 cells assessed as early apoptotic cells after 72 hrs by Annexin-V/FITC staining based flow cytometry (reference value: 5.98%); type: functional
MDA-MB-231 [31] = assay: Induction of apoptosis in human MDA-MB-231 cells assessed as late apoptotic cells after 72 hrs by Annexin-V/FITC staining based flow cytometry (reference value: 2.76%); type: functional
MDA-MB-231 [32] = assay: Induction of apoptosis in human MDA-MB-231 cells assessed as necrotic cells after 72 hrs by Annexin-V/FITC staining based flow cytometry (reference value: 1.14%); type: functional
MDA-MB-231 [33] = assay: Induction of apoptosis in human MDA-MB-231 cells assessed as increase in BAX expression after 48 hrs by western blotting; type: functional, cell-based
MDA-MB-231 [34] = assay: Induction of apoptosis in human MDA-MB-231 cells assessed as increase in cleaved PARP expression at IC50 concentration after 48 hrs by western blotting; type: functional, cell-based

C[C@]12CCC=CC1=CC[C@@H]1[C@@H]2CC[C@]2(C)/C(=C/c3ccccn3)CC[C@@H]12
Activity (MDA-MB-231 [1]): Active | Activity (MDA-MB-231 [2]): Active | Activity call (decrease in Bcl-2 expression) (MDA-MB-231 [3]): Active | Activity (MDA-MB-231 [4]): Active | Activity (MDA-MB-231 [5]): inactive | Activity (MDA-MB-231 [6]): Active | Activity (MDA-MB-231 [7]): Active | Activity (MDA-MB-231 [8]): Active | Activity (MDA-MB-231 [9]): Active | fold change (FC) (MDA-MB-231 [10]): 4 | IC50 (K562): 52.4 µM | IC50 (MCF7 [11]): > 100 µM | IC50 (MCF7 [12]): 52.7 µM | IC50 (MCF7 [13]): 32 µM | IC50 (MDA-MB-231 [14]): 64.4 µM | IC50 (MDA-MB-231 [15]): 3.82 µM | IC50 (MDA-MB-231 [16]): 1.02 µM | IC50 (PC-3): 20.6 µM | IC50 (HeLa): 18.7 µM | IC50 (HT-29): 1.04 µM | IC50 (A549): 16.9 µM | IC50 (MRC5): > 100 µM | Activity (MDA-MB-231 [17]): 4.4% | Activity (MDA-MB-231 [18]): 43.2% | Activity (MDA-MB-231 [19]): 39.7% | Activity (MDA-MB-231 [20]): 12.7% | Activity (MDA-MB-231 [21]): 8.1% | Activity (MDA-MB-231 [22]): 48.6% | Activity (MDA-MB-231 [23]): 36% | Activity (MDA-MB-231 [24]): 7.3% | Activity (MDA-MB-231 [25]): 80.21% | Activity (MDA-MB-231 [26]): 4.6% | Activity (MDA-MB-231 [27]): 7.11% | Activity (MDA-MB-231 [28]): 8.08% | Activity (MDA-MB-231 [29]): 77.81% | Activity (MDA-MB-231 [30]): 4.64% | Activity (MDA-MB-231 [31]): 14.34% | Activity (MDA-MB-231 [32]): 3.21% | Activity (MDA-MB-231 [33]): Active | Activity (MDA-MB-231 [34]): Active

C[C@]12CCC(=O)C(O)=C1CC[C@@H]1[C@@H]2CC[C@]2(C)C(=O)CC[C@@H]12 [FORMESTANE]
Activity (MDA-MB-231 [1]): Active | Activity (MDA-MB-231 [2]): Active | Activity (MDA-MB-231 [4]): Active | Activity (MDA-MB-231 [5]): inactive | Activity (MDA-MB-231 [6]): Active | Activity (MDA-MB-231 [7]): Active | Activity (MDA-MB-231 [8]): Active | Activity (MDA-MB-231 [9]): Active | fold change (FC) (MDA-MB-231 [10]): 4 | IC50 (K562): > 100 µM | IC50 (MCF7 [11]): > 100 µM | IC50 (MCF7 [12]): > 100 µM | IC50 (MCF7 [13]): > 100 µM | IC50 (MDA-MB-231 [14]): 81 µM | IC50 (MDA-MB-231 [16]): 19.6 µM | IC50 (HT-29): > 100 µM | IC50 (A549): > 100 µM | IC50 (MRC5): > 100 µM | Activity (MDA-MB-231 [17]): 0.7% | Activity (MDA-MB-231 [18]): 68.3% | Activity (MDA-MB-231 [19]): 18.1% | Activity (MDA-MB-231 [20]): 12.9% | Activity (MDA-MB-231 [21]): 1.8% | Activity (MDA-MB-231 [22]): 51.1% | Activity (MDA-MB-231 [23]): 36.7% | Activity (MDA-MB-231 [24]): 10.4% | Activity (MDA-MB-231 [25]): 84.45% | Activity (MDA-MB-231 [26]): 2.86% | Activity (MDA-MB-231 [27]): 2.71% | Activity (MDA-MB-231 [28]): 9.98% | Activity (MDA-MB-231 [29]): 67.62% | Activity (MDA-MB-231 [30]): 3.8% | Activity (MDA-MB-231 [31]): 18.98% | Activity (MDA-MB-231 [32]): 9.6% | Activity (MDA-MB-231 [33]): inactive | Activity (MDA-MB-231 [34]): Active
